From patent US7553868B2, “Thiophene carboxamides as inhibitors of the enzyme IKK-2” (AstraZeneca AB, priority 2003, dated 2009)

Assays:
[1] = Compound permeability and efflux potential using Caco-2 cell monolayers; assay type: in vitro ADME, human; design: Caco-2 Assay Papp: unit not given here; conditions: human, Caco-2; 10 μM compound, pH 7.4, 120 min at 37° C.; efflux ratio; read-out: Caco-2 Assay Papp (B-A)/Papp(A-B) Ratio
Source text: (§1) Assessment of Compound Permeability and Efflux Potential using CACO-2 Cell Monolayers.
(§2) Caco-2 cells are a cell line derived from human colon cancer cells. The Caco-2 cells retain many of the properties of the human gut, including tight junctions and transporter proteins (e.g. pgp transporter), and are used primarily to assess the potential of compounds to be absorbed after oral administration. In this assay protocol, transports in the apical to basolateral direction (A-B direction) as well as in the opposite direction (B-A direction) are determined to assess both permeability and efflux potentials of the test compounds.
(§3) Cells are seeded at a density of 100,000 cells/well onto 1 μm filters within each well of 24-well plates (Beckton-Dickinson, UK) and grown until an intact monolayer of the cells is formed across each well (14 days).
(§4) When ready for use the intactness of the monolayers is assessed using measurement of the Trans-Epithelial Resistance (TEER) within each well. If TEERs are acceptable, each test compound is added to pH 7.4 buffer to a concentration of 10 μM in either the upper (Apical; A) or lower (Basolateral; B) chambers of the individual wells of the 24-well plates in duplicate, resulting in replicate measurements of the permeability of each compound through the monolayers in both the A-B and B-A directions. Four reference compounds are incubated alongside test compounds for quality control purposes (low, medium and high permeability plus one known efflux substrate).
(§5) After mixing, an aliquot of the donor chamber is taken immediately for analysis (TO). The plates are then incubated for 120 min at 37° C., after which a further aliquot is taken from the donor chamber (used to assess recovery over the duration of the experiment), while a similar aliquot is taken from the recipient chamber at this time (T120 sample).
(§6) All sample manipulations are undertaken on a Tecan Genesis RS200 robot.
(§7) All samples are analysed using LC-electrospray MS (both + and − mode), and peak areas used to quantify each test agent.
(§8) From the data obtained the rate of transfer (Papp) of each compound across the monolayer is calculated in either the A-B or B-A directions. From the Papp(A-B) data, the potential human absorption is categorised as LOW (Papp<=[…].cm^2.sec^−1), PARTIAL (Papp>0.5<=2.9×10^6 cm^2.sec^−1) or HIGH (Papp>2.9×10^6.cm^2.sec^−1), while from the Papp(B-A)/Papp(A-B) ratio, the potential for efflux of the test compound is assessed, where a ratio≧5 is categorised as HIGH, and <5 is categorised as LOW.

Caco-2 cell monolayers = assay: as above; assay type: in vitro ADME, human; design: Caco-2 Assay Papp: unit not given here; conditions: 10 μM compound, pH 7.4, 120 min at 37° C.; Papp(A-B) used for absorption category
Source text: as §1, §2, §3, §4, §5, §6, §7, §8

IKK-2 = target: T1, IKK-2 (Homo sapiens, UniProt O14920); assay: IKK-2 filter kinase assay; assay type: biochemical; conditions: 1 μM ATP, 1-53 GST-IκB substrate, read-out: Inhibition of IKK-2
T1 sequence (O14920 1-756): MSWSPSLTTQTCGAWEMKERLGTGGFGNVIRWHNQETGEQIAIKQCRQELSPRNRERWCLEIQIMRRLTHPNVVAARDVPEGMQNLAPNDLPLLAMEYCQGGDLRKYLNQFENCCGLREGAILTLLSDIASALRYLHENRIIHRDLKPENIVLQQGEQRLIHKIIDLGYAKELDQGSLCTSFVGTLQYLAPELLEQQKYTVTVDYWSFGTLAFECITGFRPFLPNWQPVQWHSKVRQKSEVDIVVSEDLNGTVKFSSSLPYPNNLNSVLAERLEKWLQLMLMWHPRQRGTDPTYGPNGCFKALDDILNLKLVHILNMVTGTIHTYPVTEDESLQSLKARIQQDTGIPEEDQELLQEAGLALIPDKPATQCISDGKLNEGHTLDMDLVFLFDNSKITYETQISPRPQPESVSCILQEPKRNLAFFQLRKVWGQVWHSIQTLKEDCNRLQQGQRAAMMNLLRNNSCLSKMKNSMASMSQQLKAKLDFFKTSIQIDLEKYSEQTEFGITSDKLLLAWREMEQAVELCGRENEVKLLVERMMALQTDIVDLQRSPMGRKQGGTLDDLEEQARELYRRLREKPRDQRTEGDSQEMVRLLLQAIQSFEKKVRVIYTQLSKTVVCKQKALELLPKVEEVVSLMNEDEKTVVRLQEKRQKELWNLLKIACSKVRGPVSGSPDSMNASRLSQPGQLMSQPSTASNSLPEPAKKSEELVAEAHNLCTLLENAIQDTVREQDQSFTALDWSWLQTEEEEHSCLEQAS
Procedure: IKK-2 Filter Kinase Assay
The test compounds were dissolved to 10 mM in dimethylsulphoxide (DMSO). The compounds were then diluted 1 in 40 in kinase buffer (50 mM Tris, pH 7.4 containing 0.1 mM EGTA, 0.1 mM sodium orthovanadate and 0.1% β-mercaptoethanol). 1 in 3 serial dilutions were made from this solution with 2.5% DMSO in kinase buffer. 20 μl of compound dilution was added to wells of a 96 well plate in duplicate. 20 μl 2.5% DMSO in kinase buffer instead of compound was added to control wells (0% inhibition). […] 10 μl of a mixture of magnesium acetate, unlabelled ATP, and ^33P-labelled ATP was added to each well made such that the final concentration was 10 mM magnesium acetate, 1 μM ATP and 0.1 μCi ^33P ATP. […] The final reaction volume was 50 μl.
The kinase reactions were incubated at 21° C. for 80 minutes and the reaction stopped by precipitating the protein by the addition of an equal volume (50 μl) of 20% trichloroacetic acid (TCA). The precipitate was allowed to form for 10 minutes and then filtered onto a GF/C unifilter 96 well plate. Each filter was washed twice with approximately 1 ml 2% TCA. The filter plate was dried at 30-40° C. for 60 minutes, 20 μl scintillant was added to each well and the plate sealed and radioactivity counted on a Packard Topcount microplate scintillation counter.

Row | SMILES | efflux ratio at 120 min, 10 μM [1] | Caco-2 Assay Papp (Caco-2 cell monolayers) | IC50 (IKK-2) [nM]
1 | COCCN1CCC(Oc2ccccc2-c2cc(C(N)=O)c(NC(N)=O)s2)C1 (stereo not drawn) [2-[(Aminocarbonyl)amino]-5-(2-{[1-(2-methoxyethyl)-pyrrolidin-3-yl]oxy}phenyl)-3-thiophenecarboxamide, reference compound] | 5.88 | 1.86 | 30
2 | NC(=O)Nc1cc(-c2ccccc2OCCN2Cc3ccccc3C2)sc1C(N)=O [Example 13, 3-[(Aminocarbonyl)amino]-5-[2-{2-(1,3-dihydro-2H-isoindol-2-yl)ethoxy}phenyl]thiophene-2-carboxamide] | 1.26 | 23.6 | 1430
3 | NC(=O)Nc1sc(-c2ccccc2OCCN2Cc3ccccc3C2)cc1C(N)=O [Example 5, 2-[(Aminocarbonyl)amino]-5-[2-{2-(1,3-dihydro-2H-isoindol-2-yl)ethoxy}phenyl]thiophene-3-carboxamide] | 0.66 | 14.3 | 150
4 | NC(=O)Nc1sc(-c2ccccc2OC2CCN(Cc3ccccc3)C2)cc1C(N)=O (stereo not drawn) [Example 7, 2-[(Aminocarbonyl)amino]-5-[2-{[1-benzylpyrrolidin-3-yl]oxy}phenyl]thiophene-3-carboxamide] | 1.07 | 15.7 | 40
5 | CN1CCC(Oc2ccccc2-c2cc(C(N)=O)c(NC(N)=O)s2)C1 (stereo not drawn) [2-[(Aminocarbonyl)amino]-5-(2-[{1-methylpyrrolidin-3-yl}oxy]phenyl)-3-thiophenecarboxamide, reference compound] | 8.14 | 2.19 | 10
